Data as given in patent US20260232662A1, “MIR-124 INDUCER, AND PREPARATION METHOD THEREFOR AND USE THEREOF” (NANJING SYNNOCARE PHARMACEUTICAL TECHNOLOGY CO., LTD., priority 2023, published 2026).

Columns and labels:
[1] = system: miR-124; experiment: Induction of miR-124 expression in PBMC cells (qPCR); assay type: cell-based; conditions: Homo sapiens, 72 h, 0.1 μM compound, human PBMCs stimulated with PMA/ionomycin, miR-191 reference gene, read-out: miR-124 expression, Fold change vs DMSO
Procedure, shortened: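 Human PBMCs (3.0*10^6 cells/well) were stimulated with PMA 10 ng/mL plus ionomycin 200 ng/mL for 48 h, then given compound at 0.1 μM final for 72 h. miR-124 was measured by RT-qPCR against miR-191 as reference gene. Expression is relative to DMSO control.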

[2] = In vivo pharmacokinetic evaluation in mice; conditions: mouse; male ICR mice, po, 10 mg/kg, plasma
Procedure: The compound was administered orally (p.o.) at a dose of 10 mg/kg. The test formulation was prepared at a final concentration of 0.4 mg/mL in 5% DMSO+45% PEG400+50% aqueous solution or suspension. Male ICR mice (9 per group) were sampled at three discontinuous time points (n=3 mice/time point). Approximately 80 μL of blood was collected via orbital or cardiac puncture at 5 min, 15 min, 30 min, 1 h, 2 h, 4 h, 8 h, and 24 h post-dose. All whole blood samples were collected in EDTA K2-containing tubes. After centrifugation at 4° C. (4000 rpm, 10 min), plasma was collected and stored below −40° C. for subsequent analysis. Compound concentrations in plasma were determined by liquid chromatography-tandem mass spectrometry (LC-MS/MS), and pharmacokinetic parameters were derived from the plasma concentration-time curves.

[3] = system: DSS-induced IBD in mice; experiment: Preventive and therapeutic effects on DSS-induced inflammatory bowel disease (IBD) in mice; assay type: in vivo; conditions: for reduction in total DAI scores compared to the model group / Total Disease Activity Index (DAI) Scores / Colon length / colon length as % of normal control values / total DAI scores: 40 mg/kg p.o. q.d.; for Total Disease Activity Index (DAI) Scores / total DAI scores: final day; for Total Disease Activity Index (DAI) Scores / Colon length: mean ± S.E.M.; for Total Disease Activity Index (DAI) Scores: model group 14.50; for Colon length: last experimental day, normal control 6.44, model group 4.98; for colon length as % of normal control values: model group 77.32%; for total DAI scores: model group 14.5 points; for preventive and therapeutic effects on DSS-induced IBD (body weight, DAI, colon length) relative to ABX464: further experiments, figures not given
Source text: This study evaluated the preventive and therapeutic effects of the compounds of the present invention on dextran sulfate sodium (DSS)-induced IBD in mice. The experiment utilized female C57BL/6 mice (purchased from Beijing Vital River Laboratory Animal Technology Co., Ltd.) to establish the DSS-induced IBD model.
Female C57BL/6 mice (6-8 weeks old) were purchased from Beijing Vital River Laboratory Animal Technology Co., Ltd. Upon arrival, the mice were housed in individually ventilated cages (IVC) under specific pathogen-free (SPF) conditions, with 2-6 mice per cage. They were provided with ad libitum access to food and water and maintained at a temperature of 20-26° C. (68-79° F.), relative humidity of 40-70%, and a 12-hour light/dark cycle (lights on from 08:00 to 20:00). After a 7-day acclimatization period, experiments were initiated.
Test compounds and ABX464 vehicle: 5% DMSO+10% Solutol HS-15+85% saline, stored at 4° C.
DSS solution: 2% (w/v) DSS in autoclaved drinking water, prepared fresh before use.
The mice were randomly allocated into eight groups according to body weight: normal control group (negative control), model group (DSS group), ABX464 treatment group, test compound groups (administered with Compounds 19, 43, 59, 84, and 89 of the present invention at 40 mg/kg, p.o., q.d.)
Following a 7-day acclimation period, the model group and compound treatment groups were administered 2% DSS aqueous solution ad libitum for 7 days starting from Day 0, followed by 3 days of normal water consumption. All groups received daily oral gavage of their respective vehicles or test compounds for 10 consecutive days beginning on the trial commencement date. During the experimental period, body weight changes in mice were monitored and recorded daily, the Disease Activity Index (DAI) was scored each day with the total score calculated on the final day, and on the last experimental day all animals were humanely euthanized followed by colon collection and length measurement.
The experimental data were expressed as mean±standard error of the mean (mean±S.E.M.). Statistical analysis was performed using GraphPad Prism or SPSS software with appropriate statistical methods. A value of P<0.05 was considered statistically significant.

[4] = day 10, 40 mg/kg p.o. q.d., female C57BL/6 mice, 2% DSS

Structure (SMILES) | AUC(0-t) [2] [µg·h/mL] | Cmax [2] [µg/mL] | Tmax [2] [h] | half-life [2] [h] | fold induction at 0.1 µM [1] | further results
FC(F)(F)Oc1ccc(Nc2nc3c(Cl)cccc3n3ccnc23)cc1 [Compound 2] | 0.933 | 0.207 | 4 | 3.45 | 16.5 | –
Fc1cc(Nc2nc3c(Cl)cccc3n3ccnc23)ccc1OC(F)(F)F [Compound 18] | 1.84 | 0.365 | 2 | 3.78 | 17.6 | –
Fc1cc(Nc2nc3c(F)cc(Cl)cc3n3ccnc23)ccc1C(F)(F)F [Compound 59] | – | – | – | – | 20.5 | reduction in total DAI scores compared to the model group [3]: 40.90%; colon length as % of normal control values [3]: 100%; body weight gain percentage [3, 4]: 2.12%; Total Disease Activity Index (DAI) Scores [3]: 8.57; total DAI scores [3]: 8.57 points; Colon length [3]: 6.48 cm
FC(F)(F)c1ccc(NC2=Nc3c(Cl)cccc3N3CCN=C23)cc1Cl [Compound 67] | 2.03 | 0.403 | 4 | 3.29 | 28.8 | –
FC(F)(F)c1ccc(NC2=Nc3c(Cl)cccc3N3CCN=C23)cc1 [Compound 68] | 0.879 | 0.243 | 0.5 | 2.17 | 29.5 | –
FC1(F)Oc2ccc(NC3=Nc4c(Cl)cccc4N4CCN=C34)cc2O1 [Compound 70] | 1.43 | 0.357 | 0.5 | 2.32 | 16.4 | –
Fc1cc(NC2=Nc3c(Cl)cccc3N3CCN=C23)ccc1OC(F)(F)F [Compound 71] | 1.37 | 0.274 | 4 | 3.41 | 25.3 | –
FC(F)(F)Oc1ccc(NC2=Nc3c(Br)cccc3N3CCN=C23)cc1Cl [Compound 84] | – | – | – | – | 15.5 | reduction in total DAI scores compared to the model group [3]: 41.59%; colon length as % of normal control values [3]: 96.89%; body weight gain percentage [3, 4]: 0.38%; Total Disease Activity Index (DAI) Scores [3]: 8.47; total DAI scores [3]: 8.47 points; Colon length [3]: 6.24 cm
FC(F)(F)Oc1ccc(Nc2nc3cccc(Br)c3n3ccnc23)cc1Cl [Compound B83, 9-bromo-N-(3-chloro-4-(trifluoromethoxy)phenyl) imidazolo[1,2-a] quinoxalin-4-amine] | – | – | – | – | – | preventive and therapeutic effects on DSS-induced IBD (body weight, DAI, colon length) relative to ABX464 [3]: outperformed the reference drug ABX464
Fc1cc(Nc2nc3cc(Cl)cc(Cl)c3n3ccnc23)ccc1C(F)(F)F [Compound B97, 7,9-dichloro-N-(3-fluoro-4-(trifluoromethyl)phenyl) imidazolo[1,2-a] quinoxalin-4-amine] | – | – | – | – | 26.2 | preventive and therapeutic effects on DSS-induced IBD (body weight, DAI, colon length) relative to ABX464 [3]: outperformed the reference drug ABX464
FC(F)(F)Oc1ccc(Nc2nc3cc(Cl)ccc3n3ccnc23)cc1Cl [Compound B108, 7-chloro-N-(3-chloro-4-(trifluoromethoxy)phenyl) imidazolo[1,2-a] quinoxalin-4-amine] | – | – | – | – | 22.5 | preventive and therapeutic effects on DSS-induced IBD (body weight, DAI, colon length) relative to ABX464 [3]: outperformed the reference drug ABX464
FC(F)(F)c1ccc(NC2=Nc3ccc(Cl)cc3N3CCN=C23)cc1 [Compound B145, 8-chloro-N-(4-(trifluoromethyl)phenyl)-1,2-dihydroimidazo[1,2-a] quinoxalin-4-amine] | – | – | – | – | 30 | –
Fc1cc(NC2=Nc3ccc(Cl)cc3N3CCN=C23)ccc1C(F)(F)F [Compound B146, 8-chloro-N-(3-Fluoro-4-(trifluoromethyl)phenyl)-1,2-dihydroimidazo[1,2-a] quinoxalin-4-amine] | – | – | – | – | 28.7 | –
FC(F)(F)c1ccc(NC2=Nc3ccc(Cl)cc3N3CCN=C23)cc1Cl [Compound B147, 8-chloro-N-(3-chloro-4-(trifluoromethyl)phenyl)-1,2-dihydroimidazo[1,2-a] quinoxalin-4-amine] | – | – | – | – | 27.9 | –
FC(F)(F)Oc1ccc(NC2=Nc3cc(Cl)ccc3N3CCN=C23)cc1 [Compound B148, 7-chloro-N-(4-(trifluoromethoxy)phenyl)-1,2-dihydroimidazo[1,2-a] quinoxalin-4-amine] | – | – | – | – | 29.4 | –
Fc1cc(NC2=Nc3cc(Cl)ccc3N3CCN=C23)ccc1OC(F)(F)F [Compound B149, 7-chloro-N-(3-fluoro-4-(trifluoromethoxy)phenyl)-1,2-dihydroimidazo[1,2-a] quinoxalin-4-amine] | – | – | – | – | 34.7 | –
FC(F)(F)Oc1ccc(NC2=Nc3cc(Cl)ccc3N3CCN=C23)cc1Cl [Compound B150, 7-chloro-N-(3-chloro-4-(trifluoromethoxy)phenyl)-1,2-dihydroimidazo[1,2-a] quinoxalin-4-amine] | – | – | – | – | 26.4 | –

Further lines, with some results ahead:

AUC(0-t) [2] [µg·h/mL] | Cmax [2] [µg/mL] | Tmax [2] [h] | half-life [2] [h] | Structure (SMILES) | fold induction at 0.1 µM [1] | further results
0.42 | 0.168 | 0.5 | 1.08 | FC(F)(F)Oc1ccc(Nc2ccc3cccc(Cl)c3n2)cc1 [ABX464, reference compound] | 13.5 | reduction in total DAI scores compared to the model group [3]: 5.72%; body weight loss percentage [3, 4]: 5.37%; Total Disease Activity Index (DAI) Scores [3]: 13.67; Colon length [3]: 6.22 cm
3.59 | 0.45 | 1 | 2.58 | FC(F)(F)Oc1ccc(Nc2nc3cccc(Cl)c3n3ccnc23)cc1 [Compound B1, 9-chloro-N-(4-(trifluoromethoxy)-phenyl)imidazolo [1,2-a]quinoxalin-4-amine] | 43.8 | –
2.85 | 0.271 | 2 | 3.26 | FC(F)(F)Oc1ccc(Nc2nc3ccc(Cl)cc3n3ccnc23)cc1 [Compound B4, 8-chloro-N-(4-(trifluoromethoxy)phenyl)imidazolo [1,2-a]quinoxalin-4-amine] | 33.1 | –
1.33 | 0.346 | 0.5 | 1.96 | FC(F)(F)c1ccc(Nc2nc3cccc(Cl)c3n3ccnc23)cc1Cl [Compound B54, 9-chloro-N-(3-chloro-4-(trifluoromethyl)phenyl)imidazolo [1,2-a]quinoxalin-4-amine] | 34.1 | –
1.88 | 0.269 | 2 | 2.47 | FC(F)(F)Oc1ccc(NC2=Nc3cccc(Cl)c3N3CCN=C23)cc1 [Compound B118, 9-chloro-N-(4-(trifluoromethoxy)phenyl)-1,2-dihydroimidazo[1,2-a] quinoxalin-4-amine] | 28.8 | –
1.95 | 0.378 | 1 | 2.12 | FC(F)(F)c1ccc(NC2=Nc3cccc(Cl)c3N3CCN=C23)cc1 [Compound B121, 9-chloro-N-(4-(trifluoromethyl)phenyl)-1,2-dihydroimidazo[1,2-a] quinoxalin-4-amine] | 29.5 | –
3.26 | 0.375 | 2 | 3.36 | FC(F)(F)c1ccc(NC2=Nc3cc(Cl)cc(Cl)c3N3CCN=C23)cc1 [Compound B139, 7,9-dichloro-N-(4-(trifluoromethyl)phenyl)-1,2-dihydroimidazo[1,2-a] quinoxalin-4-amine] | 40.6 | –
